{"source": "patent US20120121540A1", "about": "(priority 2007, published 2012)", "data": [{"assay": "HCV replicon assay (luciferase reporter, ET cell line)", "assay_type": "cell-based", "conditions": "Hepatitis C virus, HCV replicon luciferase activity in ET cells", "outline": "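EC50 and, via WST-1 cytotoxicity, TC50 were fitted with a Hill-coefficient equation to % inhibition across 10 two-fold dilutions. Compounds at 0.1 nM-[…] with 0.5% DMSO were applied 24 h post-seeding to replicon-bearing ET cells (luc-ubi-neo/NS3-5B, adaptive mutations). Firefly luciferase signal was measured after 48-72 h.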", "units": {"inhibition at 10 µM": "%"}, "values": [{"smiles": "O=C(NCc1ccccc1)NCc1cn2cc(-c3ccoc3)cc(C(F)(F)F)c2n1", "note": "[Compound 391, 1-Benzyl-3-(6-furan-3-yl-8-trifluoromethyl-imidazo[1,2-a]pyridin-2-ylmethyl)-urea]", "inhibition at 10 µM": 99.9}, {"smiles": "O=C(c1cn2cc(-c3ccoc3)cc(C(F)(F)F)c2n1)N1CCC(c2ccccc2F)C1", "note": "(stereo not drawn) [Compound 337, [3-(2-Fluoro-phenyl)-pyrrolidin-1-yl]-(6-furan-3-yl-8-trifluoromethyl-imidazo[1,2-a]pyridin-2-yl)-methanone]", "inhibition at 10 µM": 97.7}, {"smiles": "O=C(NCc1cccs1)c1nc2c(C(F)(F)F)cc(-c3ccc[nH]3)cn2c1Cl", "note": "[Compound 293, 3-Chloro-6-(1H-pyrrol-2-yl)-8-trifluoromethyl-imidazo[1,2-a]pyridine-2-carboxylic Acid(thiophen-2-ylmethyl)-amide]", "inhibition at 10 µM": 87.2}, {"smiles": "O=C(c1nc2c(C(F)(F)F)cc(-c3ccco3)cn2c1Cl)N1CCC(c2ccc(F)cc2)C1", "note": "(stereo not drawn) [Compound 316, (3-Chloro-6-furan-2-yl-8-trifluoromethyl-imidazo[1,2-a]pyridin-2-yl)-[3-(4-fluoro-phenyl)-pyrrolidin-1-yl]-methanone]", "inhibition at 10 µM": 89.2}, {"smiles": "O=C(NCc1cncs1)c1nc2c(C(F)(F)F)cc(-c3ccoc3)cn2c1Cl", "note": "[Compound 360, 3-Chloro-6-furan-3-yl-8-trifluoromethyl-imidazo[1,2-a]pyridine-2-carboxylic Acid (thiazol-5-ylmethyl)-amide]", "inhibition at 10 µM": 85.2}, {"smiles": "O=C(c1nc2c(C(F)(F)F)cc(-c3ccoc3)cn2c1Cl)N1CCC(c2cccnc2)C1", "note": "(stereo not drawn) [Compound 453, (3-Chloro-6-furan-3-yl-8-trifluoromethyl-imidazo[1,2-a]pyridin-2-yl)-(3-pyridin-3-yl-pyrrolidin-1-yl)-methanone]", "inhibition at 10 µM": 97.6}, {"smiles": "O=C(c1cn2cc(-c3cn[nH]c3)cc(C(F)(F)F)c2n1)N1CC=C(c2nccs2)C1", "note": "[Compound 440, [6-(1H-Pyrazol-4-yl)-8-trifluoromethyl-imidazo[1,2-a]pyridin-2-yl]-(3-thiazol-2-yl-2,5-dihydro-pyrrol-1-yl)-methanone]", "inhibition at 10 µM": 98.9}, {"smiles": "C#Cc1ccccc1C1=CCN(C(=O)c2nc3c(C(F)(F)F)cc(-c4ccoc4)cn3c2Cl)CC1", "note": "[Compound 567, (3-Chloro-6-furan-3-yl-8-trifluoromethyl-imidazo[1,2-a]pyridin-2-yl)-[4-(2-ethynyl-phenyl)-3,6-dihydro-2H-pyridin-1-yl)-methanone]", "inhibition at 10 µM": 81.3}, {"smiles": "CN(C)CCNC(=O)Cc1c(C(=O)N2CCC(c3ccc(F)cc3)C2)nc2c(C(F)(F)F)cc(-c3ccoc3)cn12", "note": "(stereo not drawn) [Compound 241, N-(2-Dimethylamino-ethyl)-2-{2-[3-(4-fluoro-phenyl)-pyrrolidine-1-carbonyl]-6-furan-3-yl-8-trifluoromethyl-imidazo[1,2-a]pyridin-3-yl}-acetamide]", "inhibition at 10 µM": 100}, {"smiles": "O=C(c1nc2c(C(F)(F)F)cc(-c3ccco3)cn2c1Cl)N1CC(Cc2ccccc2)C1", "note": "[Compound 328, (3-Benzyl-azetidin-1-yl)-(3-chloro-6-furan-2-yl-8-trifluoromethyl-imidazo[1,2-a]pyridin-2-yl)-methanone]", "inhibition at 10 µM": 72.5}, {"smiles": "O=C(NCc1cccs1)c1nc2c(C(F)(F)F)cc(-c3cccc(F)c3)cn2c1Br", "note": "[Compound 367, 3-bromo-6-(3-fluoro-phenyl)-8-trifluoromethyl-imidazo[1,2-a]pyridine-2-carboxylic acid (thiophen-2-ylmethyl)-amide]", "inhibition at 10 µM": 96.2}, {"smiles": "CC(=O)NCc1c(-c2ccoc2)cc(C(F)(F)F)c2nc(C(=O)N3CCC(c4cccc(F)c4)C3)cn12", "note": "(stereo not drawn) [Compound 637, N-{[2-{[3-(3-fluorophenyl)pyrrolidin-1-yl]carbonyl}-6-(furan-3-yl)-8-(trifluoromethyl)imidazo[1,2-a]pyridin-5-yl]methyl}acetamide]", "inhibition at 10 µM": 60.8}, {"smiles": "COc1ccc(C2CCN(C(=O)c3nc4c(C(F)(F)F)cc(-c5ccoc5)cn4c3Cl)C2)cc1OC", "note": "(stereo not drawn) [Compound 339, (3-Chloro-6-furan-3-yl-8-trifluoromethyl-imidazo[1,2-a]pyridin-2-yl)-[3-(3,4-dimethoxy-phenyl)-pyrrolidin-1-yl]-methanone]", "inhibition at 10 µM": 63}, {"smiles": "N#CC1CCN(C(=O)c2nc3c(C(F)(F)F)cc(-c4ccoc4)cn3c2Cl)C1", "note": "(stereo not drawn) [Compound 416, 1-(3-Chloro-6-furan-3-yl-8-trifluoromethyl-imidazo[1,2-a]pyridine-2-carbonyl)-pyrrolidine-3-carbonitrile]", "inhibition at 10 µM": 58}, {"smiles": "O=C(c1nc2c(C(F)(F)F)cc(-c3ccoc3)cn2c1Br)N1CCC(c2ccccc2F)C1", "note": "(stereo not drawn) [Compound 448]", "inhibition at 10 µM": 99.2}, {"smiles": "O=C(NCc1cccs1)c1nc2c(C(F)(F)F)cc(-c3cn[nH]c3)cn2c1Br", "note": "[Compound 376, 3-Bromo-6-(1H-pyrazol-4-yl)-8-trifluoromethyl-imidazo[1,2-a]pyridine-2-carboxylic Acid(thiophen-2-ylmethyl)-amide]", "inhibition at 10 µM": 98.8}, {"smiles": "N#Cc1cc(-c2ccccc2)cn2c(Br)c(C(=O)NCc3cccs3)nc12", "note": "[Compound 362, 3-Bromo-8-cyano-6-phenyl-imidazo[1,2-a]pyridine-2-carboxylic Acid (thiophen-2-ylmethyl)amide]", "inhibition at 10 µM": 86.9}, {"smiles": "O=C(c1nc2c(C(F)(F)F)cc(-c3ccoc3)cn2c1Cl)N1CC[C@H](c2ccccc2)C1", "note": "[Compound 261, (3-Chloro-6-furan-3-yl-8-trifluoromethyl-imidazo[1,2-a]pyridin-2-yl)-(3-(R)-phenyl-pyrrolidin-1-yl)-methanone]", "inhibition at 10 µM": 87.9}, {"smiles": "O=C(NCc1cccc(C(F)(F)F)c1)c1nc2c(C(F)(F)F)cc(-c3ccco3)cn2c1Cl", "note": "[Compound 180, 3-Chloro-6-furan-2-yl-8-trifluoromethyl-imidazo[1,2-a]pyridine-2-carboxylic acid 3-trifluoromethyl-benzylamide]", "inhibition at 10 µM": 20.4}, {"smiles": "O=C(Cc1c(C(=O)N2CCC(c3ccc(F)cc3)C2)nc2c(C(F)(F)F)cc(-c3ccoc3)cn12)NCc1ccccc1", "note": "(stereo not drawn) [Compound 240, N-Benzyl-2-{2-[3-(4-fluoro-phenyl)-pyrrolidine-1-carbonyl]-6-furan-3-yl-8-trifluoromethyl-imidazo[1,2-a]pyridin-3-yl}-acetamide]", "inhibition at 10 µM": 33.4}, {"smiles": "O=C(NCc1cccs1)c1nc2c(C(F)(F)F)cc(-c3ccc(C(F)(F)F)cc3)cn2c1Cl", "note": "[Compound 199, 3-Chloro-8-trifluoromethyl-6-(4-trifluoromethyl-phenyl)-imidazo[1,2-a]pyridine-2-carboxylic acid (thiophen-2-ylmethyl)-amide]", "inhibition at 10 µM": 41}, {"smiles": "O=C(c1nc2c(C(F)(F)F)cc(-c3ccoc3)cn2c1Cl)N1CCN(c2ccccn2)CC1", "note": "[Compound 532, (3-Chloro-6-furan-3-yl-8-trifluoromethyl-imidazo[1,2-a]pyridine-2-yl)-[4-pyridin-2-yl-piperazin-1-yl]-methanone]", "inhibition at 10 µM": 79.1}, {"smiles": "N#Cc1ccccc1C1CCN(C(=O)c2nc3c(C(F)(F)F)cc(-c4ccoc4)cn3c2Cl)CC1", "note": "[Compound 540, 2-[1-(3-Chloro-6-furan-3-yl-8-trifluoromethyl-imidazo[1,2-a]pyridine-2-carbonyl)-piperidin-4-yl]-benzonitrile]", "inhibition at 10 µM": 98.6}, {"smiles": "Cc1noc(C2CCN(C(=O)c3nc4c(C(F)(F)F)cc(-c5cn[nH]c5)cn4c3Cl)C2)n1", "note": "(stereo not drawn) [Compound 476, [3-Chloro-6-(1H-pyrazol-4-yl)-8-trifluoromethyl-imidazo[1,2-a]pyridin-2-yl]-[3-(3-methyl-[1,2,4]oxadiazol-5-yl)-pyrrolidin-1-yl]-methanone]", "inhibition at 10 µM": 72}]}]}
